Test results from US11753403B2, “EIF4E inhibitors and uses thereof” (PIC Therapeutics, Inc., priority 2020, dated 2023).

Each molecule was assayed against Human eIF4E (aa 28-217) / biotin labeled 4G2 peptide (Homo sapiens (Human), UniProt P06730) (assay: Human eIF4E/4G2 binding assay (TR-FRET)). Conditions: Human eIF4E/4G2 TR-FRET binding assay; head says IC50, legend says EC50.
How it was run: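 Refolded His-tagged human eIF4E (aa 28-217), 82.5 nM working stock, preincubated 4 h at RT with compounds (10-point 2-fold series) in NaPi pH 6.5 buffer with DTT and gamma globulin. Biotin-4G2 peptide then added for 20 min, followed by Eu-streptavidin/APC-anti-His for 20 min; TR-FRET 665/615 nm ratio normalized, IC50 fitted.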

Chain of Human eIF4E (aa 28-217) / biotin labeled 4G2 peptide (P06730 28-217): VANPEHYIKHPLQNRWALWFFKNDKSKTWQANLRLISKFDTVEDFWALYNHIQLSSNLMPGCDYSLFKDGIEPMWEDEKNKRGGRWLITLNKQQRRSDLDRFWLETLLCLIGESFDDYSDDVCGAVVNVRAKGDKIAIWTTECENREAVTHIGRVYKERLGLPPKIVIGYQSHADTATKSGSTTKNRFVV

| Structure (SMILES) | IC50 |
| --- | --- |
| CC(C)Cc1sc(N(CCC(=O)N2CCC(CN)CC2)Cc2ccccc2)nc1-c1ccc(Cl)c(Cl)c1 [I-135] | 1000 to 10000 nM |
| CC(C)Cc1sc(NCC(Cc2cccc(C(N)=O)c2)C(=O)O)nc1-c1ccc(Cl)c(Cl)c1 (centres unmarked) [I-167] | 1000 to 10000 nM |
| CC(C)Cc1sc(N(CCO)CCC(=O)O)nc1-c1ccc(Cl)c(Cl)c1 [I-66] | 1000 to 10000 nM |
| CC(C)c1sc(NCC(Cc2cccc(O)c2)C(=O)O)nc1-c1ccc(Cl)cc1 (centres unmarked) [I-41] | 1000 to 10000 nM |
| CC(=O)NC(CNc1nc(-c2ccc(Cl)c(Cl)c2)c(CC(C)C)s1)C(=O)O (centres unmarked) [I-140] | > 10000 nM |
| CC(C)Cc1sc(N(CCS(=O)(=O)NC(=O)CN)Cc2ccccc2)nc1-c1ccc(Cl)c(Cl)c1 [I-187, 2-amino-N-(2-(benzyl(4-(3,4-dichlorophenyl)-5-isobutylthiazol-2-yl)amino)ethylsulfonyl)acetamide] | > 10000 nM |
| COc1cccc(-c2nc(NCC(CCc3ccccc3)C(=O)O)sc2C(C)C)c1 (centres unmarked) [I-33] | 1000 to 10000 nM |
| CC(C)Cc1sc(N(CCC(=O)NCCN)Cc2ccccc2)nc1-c1ccc(Cl)c(Cl)c1 [I-131, N-(2-aminoethyl)-3-(benzyl(4-(3,4-dichlorophenyl)-5-isobutylthiazol-2-yl)amino)propanamide] | 1000 to 10000 nM |
| CC(C)Cc1sc(NCC(Cc2ccnc(O)c2)C(=O)O)nc1-c1ccc(Cl)c(Cl)c1 (centres unmarked) [I-164] | 1000 to 10000 nM |
| CC(C)Cc1sc(N(CCCN)Cc2ccccc2)nc1-c1ccc(Cl)c(Cl)c1 [I-191, N^1-benzyl-N^1-(4-(3,4-dichlorophenyl)-5-isobutylthiazol-2-yl)propane-1,3-diamine] | 1000 to 10000 nM |
| CC(C)Cc1sc(NCc2cccc(O)n2)nc1-c1ccc(Cl)c(Cl)c1 [I-201, 6-((4-(3,4-dichlorophenyl)-5-isobutylthiazol-2-ylamino)methyl)pyridin-2-ol] | > 10000 nM |
| C=Cc1sc(N(CCC(=O)O)Cc2ccccc2)nc1-c1ccc(Cl)c(Cl)c1 [I-129, 3-(benzyl(4-(3,4-dichlorophenyl)-5-vinylthiazol-2-yl)amino)propanoic acid] | 1000 to 10000 nM |
| CC(C)Cc1sc(N(CCC(=O)O)Cc2ccc(Cl)cc2)nc1-c1ccc(Cl)c(Cl)c1 [I-109] | 1000 to 10000 nM |
| COc1cccc(-c2nc(NCC(Cc3cccc4cc[nH]c34)C(=O)O)sc2C(C)C)c1 (centres unmarked) [I-34] | 1000 to 10000 nM |
| COc1cccc(-c2nc(NCC(Cc3cccc(F)c3)C(=O)O)sc2C(C)C)c1 (centres unmarked) [I-32] | 1000 to 10000 nM |
| CC(C)Cc1sc(N(CCC(=O)O)Cc2ccccc2)nc1-c1ccc2[nH]ccc2c1 [I-85, 3-((4-(1H-indol-5-yl)-5-isobutylthiazol-2-yl)(benzyl)amino)propanoic acid] | 1000 to 10000 nM |
| CC(C)Cc1sc(N(CCC(=O)O)Cc2ccccc2)nc1-c1ccc(O)cc1 [I-117] | 1000 to 10000 nM |
| CC(C)Cc1sc(N2CCN(C)C(C(=O)O)C2)nc1-c1ccc(Cl)c(Cl)c1 (centres unmarked) [I-86] | > 10000 nM |
| CC(C)Cc1sc(NCc2cccnc2O)nc1-c1ccc(Cl)c(Cl)c1 [I-202] | > 10000 nM |
| O=C(O)c1cccc(-c2nc(Cc3ccc(Cl)c(Cl)c3)cs2)c1 [I-223, 3-(4-(3,4-dichlorobenzyl)thiazol-2-yl)benzoic acid] | 1000 to 10000 nM |
| CC(C)Cc1sc(N(CCC(=O)O)Cc2ccccc2)nc1-c1cccnc1 [I-83] | > 10000 nM |
| CC(C)Cc1sc(NCC(Cc2cccc3cc[nH]c23)C(=O)O)nc1-c1ccc(Cl)c(Cl)c1 (centres unmarked) [I-24] | 1000 to 10000 nM |
| Cc1cc(Nc2nc(-c3ccc(Cl)c(Cl)c3)c(CC(C)C)s2)cc(C(=O)O)c1 [I-214] | 1000 to 10000 nM |

| Structure (SMILES) | IC50 |
| --- | --- |
| CC(C)Cc1sc(NCC(Cc2ccc(N(C)C)nc2)C(=O)O)nc1-c1ccc(Cl)c(Cl)c1 (centres unmarked) [I-154] | 1000 to 10000 nM |
| CC(C)Cc1sc(N2CCN(C(=O)c3ncccn3)C(C(=O)O)C2)nc1-c1ccc(Cl)c(Cl)c1 (centres unmarked) [I-249] | 1000 to 10000 nM |
| CC(C)Cc1sc(N(CCC(=O)O)CC2CCCO2)nc1-c1ccc(Cl)c(Cl)c1 (centres unmarked) [I-69] | 1000 to 10000 nM |
| COC(=O)c1ccc(Nc2nc(-c3ccc(Cl)c(Cl)c3)c(CC(C)C)s2)o1 [I-288] | > 10000 nM |
| CC(C)Cc1sc(N(CCC(=O)O)CCC2CC2)nc1-c1ccc(Cl)c(Cl)c1 [I-106] | 1000 to 10000 nM |
| CC(C)Cc1sc(N(CCC(=O)O)CCC(=O)O)nc1-c1ccc(Cl)c(Cl)c1 [I-58, 3,3′-(4-(3,4-dichlorophenyl)-5-isobutylthiazol-2-ylazanediyl)dipropanoic acid] | > 10000 nM |
| CC(C)Cc1sc(N(CCC(=O)N(C)CCN)Cc2ccccc2)nc1-c1ccc(Cl)c(Cl)c1 [I-132] | 1000 to 10000 nM |
| COc1cc(CC(CNc2nc(-c3ccc(Cl)c(Cl)c3)c(CC(C)C)s2)C(=O)O)ccn1 (centres unmarked) [I-165] | 1000 to 10000 nM |
| COc1cccc(-c2nc(NCC(Cc3cccc4c3OCO4)C(=O)O)sc2C(C)C)c1 (centres unmarked) [I-29] | 1000 to 10000 nM |
| CC(C)c1sc(Nc2ncccc2C(=N)N)nc1-c1ccc(Cl)c(Cl)c1 [I-284, 2-(4-(3,4-dichlorophenyl)-5-isopropylthiazol-2-ylamino)nicotinimidamide] | > 10000 nM |
| CC(C)c1sc(NCC(Cc2cccc(F)c2)C(=O)O)nc1-c1ccc(Cl)cc1 (centres unmarked) [I-42] | 1000 to 10000 nM |
| CC(C)Cc1sc(N(CCC(=O)O)CC2CCN(C)CC2)nc1-c1ccc(Cl)c(Cl)c1 [I-88] | > 10000 nM |
| CC(C)Cc1sc(Nc2cccnc2C(=O)O)nc1-c1ccc(Cl)c(Cl)c1 [I-234, 3-(4-(3,4-dichlorophenyl)-5-isobutylthiazol-2-ylamino)picolinic acid] | 1000 to 10000 nM |
| CC(C)Cc1sc(Nc2ccc(-c3ccccc3)c(C(=O)O)c2)nc1-c1ccc(Cl)c(Cl)c1 [I-216] | ≤ 1000 nM |
| CC(C)c1sc(NCC(Cc2ccccc2)C(=O)O)nc1-c1ccc(Cl)cc1 (centres unmarked) [I-38] | 1000 to 10000 nM |
| CC(C)c1sc(NCC(CCc2ccccc2)C(=O)O)nc1-c1ccc(Cl)cc1 (centres unmarked) [I-43] | 1000 to 10000 nM |
| CC(C)Cc1sc(N2CCN(C(=O)c3cccs3)C(C(=O)O)C2)nc1-c1ccc(Cl)c(Cl)c1 (centres unmarked) [I-248] | ≤ 1000 nM |
| CC(C)Cc1sc(N(CCC(=O)O)Cc2cccc(Cl)c2)nc1-c1ccc(Cl)c(Cl)c1 [I-107] | ≤ 1000 nM |
| CC(C)Cc1sc(N(CCC(=O)O)Cc2cccc3[nH]ccc23)nc1-c1ccc(Cl)c(Cl)c1 [I-53, 3-(((1H-indol-4-yl)methyl)(4-(3,4-dichlorophenyl)-5-isobutylthiazol-2-yl)amino)propanoic acid] | 1000 to 10000 nM |
| CC(C)Cc1sc(NCC(CCCCN)C(=O)O)nc1-c1ccc(Cl)c(Cl)c1 (centres unmarked) [I-125, 6-amino-2-((4-(3,4-dichlorophenyl)-5-isobutylthiazol-2-ylamino)methyl)hexanoic acid] | > 10000 nM |
| COc1cc(-c2cnc(Nc3nc(-c4ccc(Cl)c(Cl)c4)c(C(C)C)s3)c(C(=O)O)c2)ccn1 [I-268] | ≤ 1000 nM |
| CC(C)c1sc(NCC(Cc2c[nH]c3ccccc23)C(=O)O)nc1-c1ccc(Cl)cc1 (centres unmarked) [I-45] | 1000 to 10000 nM |

Other lines, results leading:

| IC50 | Structure (SMILES) |
| --- | --- |
| ≤ 1000 nM | CC(C)c1sc(Nc2cc(-c3ccccc3)sc2C(=O)O)nc1-c1ccc(Cl)c(Cl)c1 [I-278] |
| ≤ 1000 nM | CC(C)Cc1sc(NCC(Cc2cccc3c2OCO3)C(=O)O)nc1-c1ccc(Cl)c(Cl)c1 (centres unmarked) [I-19] |
| ≤ 1000 nM | CC(C)Cc1sc(NCC(CCc2ccccc2)C(=O)O)nc1-c1ccc(Cl)c(Cl)c1 (centres unmarked) [I-23] |
| ≤ 1000 nM | CC(C)c1sc(Nc2ncccc2C(=O)O)nc1-c1ccc(Cl)c(Cl)c1 [I-258] |
| ≤ 1000 nM | CC(C)Cc1sc(N(CCCc2ccccc2)CCC(=O)O)nc1-c1ccc(Cl)c(Cl)c1 [I-96] |
| ≤ 1000 nM | CC(C)Cc1sc(Nc2cc(-c3cccnc3)sc2C(=O)O)nc1-c1ccc(Cl)c(Cl)c1 [I-273] |
| ≤ 1000 nM | CC(C)Cc1sc(N(CC(=O)O)Cc2ccccc2)nc1-c1ccc(Cl)c(Cl)c1 [I-59] |
| ≤ 1000 nM | CC(C)Cc1sc(-c2ccc(-c3ccccc3)c(C(=O)O)c2)nc1-c1ccc(Cl)c(Cl)c1 [I-225] |
| ≤ 1000 nM | CC(C)Cc1sc(Nc2cc(-c3ccc(F)cc3)sc2C(=O)O)nc1-c1ccc(Cl)c(Cl)c1 [I-271] |
| ≤ 1000 nM | CC(C)Cc1sc(N2CCN(C(=O)OCc3ccccc3)C(C(=O)O)C2)nc1-c1ccc(Cl)c(Cl)c1 (centres unmarked) [I-244, 1-(benzyloxycarbonyl)-4-(4-(3,4-dichlorophenyl)-5-isobutylthiazol-2-yl)piperazine-2-carboxylic acid] |
| ≤ 1000 nM | CC(C)Cc1sc(N(CCC(=O)O)Cc2ccccc2)nc1-c1ccc(Oc2ccccc2)c(Cl)c1 [I-103] |
| ≤ 1000 nM | CC(C)c1sc(Nc2ncc(Cc3ccccc3)cc2C(=O)O)nc1-c1ccc(Cl)c(Cl)c1 [I-264] |
| ≤ 1000 nM | CC(C)Cc1sc(Nc2ncc(-c3cccs3)cc2C(=O)O)nc1-c1ccc(OCC2CC2)c(Cl)c1 [I-332] |
| ≤ 1000 nM | CC(C)c1sc(NCC(Cc2cccc3cc[nH]c23)C(=O)O)nc1-c1ccc(Cl)c(Cl)c1 (centres unmarked) [I-7, 2-((1H-indol-7-yl)methyl)-3-(4-(3,4-dichlorophenyl)-5-isopropylthiazol-2-ylamino) propanoic acid] |
| ≤ 1000 nM | COc1ccccc1CC(CNc1nc(-c2ccc(Cl)c(Cl)c2)c(CC(C)C)s1)C(=O)O (centres unmarked) [I-20] |
| ≤ 1000 nM | CC(C)Cc1sc(Nc2cc(C(=O)O)cc(C(F)(F)F)c2)nc1-c1ccc(Cl)c(Cl)c1 [I-213] |
| ≤ 1000 nM | CC(C)Cc1sc(Nc2ncc(-c3ccc4ccccc4c3)cc2C(=O)O)nc1-c1ccc(Cl)c(Cl)c1 [I-322, 2-(4-(3,4-dichlorophenyl)-5-isobutylthiazol-2-ylamino)-5-(naphthalen-2-yl)nicotinic acid] |
| ≤ 1000 nM | CC(C)Cc1sc(N(CCC(=O)O)Cc2ccc3[nH]ccc3c2)nc1-c1ccc(Cl)c(Cl)c1 [I-55] |
| ≤ 1000 nM | CC(C)Cc1sc(Nc2ccc(-c3ccccc3)cc2C(=O)O)nc1-c1ccc(Cl)c(Cl)c1 [I-235] |
| ≤ 1000 nM | CC(C)Cc1sc(N(CCC(=O)O)Cc2ccccc2)nc1-c1ccc(-c2ccc(F)cc2)cc1 [I-101, 3-(benzyl(4-(4′-fluorobiphenyl-4-yl)-5-isobutylthiazol-2-yl)amino)propanoic acid] |
